Assay [1] has as its system Mouse brain-derived endothelial cells. The assay can be described thus: Capillary-like tube formation assay. It is filed as cell-based. As to the method: An in vitro angiogenesis assay was performed. Briefly, 0.8 ml of growth factor reduced Matrigel (Becton Dickinson) was added to pre-chilled 35 mm culture dishes and allowed to polymerize at 37° C. for 2 to 5 hours. […] For quantitative measurements of capillary tube formation, three random areas of Matrigel dishes were imaged and the length of continuous cords of three or more cells was measured.

Assay [2] is described as follows: Animal body weight after embolic MCA occlusion, SNAP study. The class given is in vivo, rat. As to conditions: SNAP at 24 hours after MCA occlusion; 7 days after stroke; vs saline. The method, then:
(§1) The question arises as to the specificity of this NO agent for the induction of neurogenesis and functional benefit. Are the effects specific for DETA/NONOate or would other agents that donate NO likewise provide functional benefit? To test this question, rats were treated with another NO donor, S-nitroso-N-acetylpenicillamine (SNAP, Sigma) that is structurally different from DETA/NONOate. Young, male adult Wistar rats were subjected to embolic MCA occlusion (Zhang et al., 1997). SNAP at a dose of 30 μg/kg was intravenously administered to rats as a bolus followed by 300 μg/kg/h infusion for 60 minutes at 24 hours after embolic MCA occlusion. As functional outcome measures, the rotarod test which assesses motor function such as coordination and balance (Zhang et al., 2000), the adhesive removal test which measures forelimb somato-sensorimotor asymmetries (Schallert et al., 2000), and animal body weight were measured prior to treatment and at 2, 4, 7, and 14 days after treatment. Animals were sacrificed at 14 days after stroke and the infarct volume was measured (Zhang, et al., 1997). […] These benefits persisted to the time of sacrifice at 14 days post stroke. […] Thus, the effect of the treatment is one of restorative therapy not neuroprotective therapy. […] Functional improvement in these animals is associated with change and remodeling of brain. […]

Assay [3] concerns rats subjected to embolic MCA occlusion. The assay can be described thus: Adhesive removal test after embolic MCA occlusion, SNAP study. The class given is in vivo, rat. The note with it: SNAP at 24 hours after MCA occlusion; by 4 days after stroke, persisted to 14 days. As to the method: as §1
For assay [4] the test system is unchanged. The assay can be described thus: Rotarod test after embolic MCA occlusion, SNAP study. The class given is in vivo, rat. The note with it: SNAP at 24 hours after MCA occlusion; by 4 days after stroke, persisted to 14 days. The method, then:
as §1

For assay [5] the test system is unchanged. The assay can be described thus: Infarct volume after embolic MCA occlusion, SNAP study. It is filed as in vivo, rat. The note with it: SNAP 30 μg/kg iv bolus then 300 μg/kg/h for 60 minutes at 24 hours after MCA occlusion; 14 days; vs saline. As to the method: as §1
The subject of a further assay is cGMP. The note with it: local administration to rat brain slices; cited from earlier work.
In a further assay the test system is dog cerebral arteries. As to conditions: cited from earlier work.
A further assay concerns basilar artery. The note with it: rats; cited from earlier work.

As to `Nc1nc2c(nc(Br)n2[C@@H]2O[C@@H]3COP(=O)(O)O[C@H]3[C@H]2O)c(=O)[nH]1` [8-BrcGMP, 8-Br-cGMP], the capillary-like tube formation result in assay [1] (8-BrcGMP 1 mM) is on record as “significantly (p<0.05) increased”.
Consider `CC(=O)N[C@H](C(=O)O)C(C)(C)SN=O` (racemic) [SNAP, S-nitroso-N-acetylpenicillamine], for which, in assay [2], the Animal body weight entry is given as “significantly increased”. The “function measured with the adhesive removal test” value in assay [3] was “significant improvement”. In addition, the “function measured with the rotarod” value in assay [4] is given as “significant improvement”. Moreover, the “volume of cerebral infarction” value in assay [5] is reported as “no significant difference”.
On to `CCCOc1ccccc1-c1nc2nn[nH]c2c(=O)[nH]1` [zaprinast], for which the cGMP release result in the assay with cGMP is listed as “increase of cGMP release”. Besides, the “dilatation of cerebral arteries” value with dog cerebral arteries is “produces dilatation of dog cerebral arteries”. For the same compound, the “dilatation of the basilar artery” value in the assay on basilar artery is “elicits dilatation of the basilar artery”.
As to `O=c1onc2cnc3ccccc3n12` [ODQ, 1H-[1,2,4]oxadiazolo[4,3-a]quinoxaline-1-one], in assay [1] (DETANONOate in the presence of ODQ), the “inhibition of DETANONOate-induced capillary-like tube formation” value is recorded as “completely inhibited”. Further, the “inhibition of 8-BrcGMP-induced capillary-like tube formation” value in assay [1] (ODQ) is “did not significantly inhibit”. For the same compound, the “inhibition of Sildenafil-induced capillary-like tube formation” value in assay [1] (ODQ 10 μM, Sildenafil 300 nM) is listed as “significantly inhibited”.
